Here are results for 1 compound from patent US20240358748A1, “AMORPHOUS DISPERSION OF FERRIC MALTOL AND THE PREPARATION PROCESS THEREOF” (Indena S.P.A., priority 2021, published 2024).

A short description of the data set: Accelerated stability study (solid form checked by X-ray powder diffraction). The note with it: after 12 days at room temperature and relative humidity of 75%±5%. Type of data set: physicochemical. As to the method: The X-ray diffraction pattern was recorded on a Bruker D2-Phaser diffractometer. The X-ray generator was set to 30 kV and 10 mA, using Cuk as radiation source. The sample was prepared in a sample holder and irradiated for an irradiation length of 10 mm. The data were recorded between 2 and 50 2θ degrees every 0.02 2θ degrees, with a recording time of 3 seconds per 2θ degree.
The amorphous solid dispersion prepared according to Example 1, and ferric maltol in amorphous form, prepared according to the procedure reported in Example 1 but without the addition of Soluplus®, underwent an accelerated stability study.

As to `Cc1occc(=O)c1[O-].Cc1occc(=O)c1[O-].Cc1occc(=O)c1[O-].[Fe+3]` [ferric maltol in amorphous form, 3-hydroxy-2-methyl-4H-pyran-4-one: iron (III) (3:1)], the “solid form after storage (X-ray diffractogram)” value is “attributable to ferric maltol Form I”. The “solid form after storage (X-ray diffractogram)” value (listed as ferric maltol) is given as “tends to be converted, at least partly, to a crystalline structure”.
